IC50 data for 27 compounds are collected here from patent publication US8575163B2, “Pyrrolopyridinylpyrimidin-2-ylamine derivatives” (Merck Patent GmbH, priority 2009, dated 2013).

Some results are limits rather than exact numbers.

This assay concerns the target T1, PDK1 (Homo sapiens, UniProt O15530).
T1 construct: His6 (N)
T1 sequence (O15530 51-556 limits assumed): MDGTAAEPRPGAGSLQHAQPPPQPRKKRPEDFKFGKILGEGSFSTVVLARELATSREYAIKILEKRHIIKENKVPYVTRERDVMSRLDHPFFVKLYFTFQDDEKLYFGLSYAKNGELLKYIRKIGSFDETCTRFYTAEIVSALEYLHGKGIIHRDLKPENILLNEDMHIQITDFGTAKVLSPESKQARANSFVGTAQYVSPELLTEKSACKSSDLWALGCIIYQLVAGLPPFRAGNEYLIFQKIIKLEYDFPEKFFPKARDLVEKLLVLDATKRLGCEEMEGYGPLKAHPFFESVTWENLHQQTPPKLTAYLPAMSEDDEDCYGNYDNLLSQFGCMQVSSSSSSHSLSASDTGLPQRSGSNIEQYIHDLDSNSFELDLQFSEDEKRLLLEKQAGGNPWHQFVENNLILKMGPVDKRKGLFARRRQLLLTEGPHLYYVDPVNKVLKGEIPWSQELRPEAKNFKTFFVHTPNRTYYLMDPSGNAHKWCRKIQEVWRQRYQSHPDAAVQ
Briefly: Test for the inhibition of PDK1 (flashplate, 33P-ATP). The format is biochemical. To be noted: His6-PDK1 3.4 nM, 4 μM ATP, 30° C., 60 min. On the procedure: The experimental batches are carried out in a flashplate system with 384 wells/microtitration plate.
In each case, the PDK1 sample His6-PDK1(1-50)(3.4 nM), the PDK1 substrate biotin-bA-bA-[…] (400 nM), 4 μM ATP (with 0.2 μCi of ^33 P-ATP/well) and the test substance in 50 μl of conventional experimental solution per well are incubated at 30° C. for 60 min. The test substances are employed in corresponding concentrations (if desired in a dilution series). The control is carried out without test substance. The reaction is stopped using standard methods and washed. The activity of the kinase is measured via the incorporated radioactivity in top count. In order to determine the non-specific kinase reaction (blank value), the experimental batches are carried out in the presence of 100 nM staurosporin.
The radioactivity (decompositions per minute) of the blank value (no use of test substance in the presence of staurosporin) is subtracted from all other radioactivity values. The controls (kinase activity without test substance) are set equal to 100 percent and all other radioactivity values (after subtracting the blank value) are expressed set in relation thereto (for example in % of the control).
[formula] IC50 values (50% inhibition) are determined with the aid of statistics programmes, such as, for example, RS1.

Compound `CC(O)(c1ccccc1)c1cc(-c2c[nH]c3ncc(-c4cnn(CCC(=O)N5CCOCC5)c4)cc23)nc(N)n1` (stereo not drawn) [A67, 3-(4-{3-[2-amino-6-(1-hydroxy-1-phenylethyl)pyrimidin-4-yl]-1H-pyrrolo-[2,3-b]pyridin-5-yl}pyrazol-1-yl)-1-morpholin-4-ylpropan-1-one] came in with a half-maximal inhibitory concentration (IC50) of 28 nM.
Next, `CC(O)(c1ccccc1)c1cc(-c2c[nH]c3ncc(-c4cnn(CCC(=O)N5CCCCC5)c4)cc23)nc(N)n1` (stereo not drawn) [A66, 3-(4-{3-[2-amino-6-(1-hydroxy-1-phenylethyl)pyrimidin-4-yl]-1H-pyrrolo-[2,3-b]pyridin-5-yl}pyrazol-1-yl)-1-piperidin-1-ylpropan-1-one]: 91 nM; `CCC(O)(c1ccncc1)c1cc(-c2c[nH]c3ncc(-c4cn[nH]c4)cc23)nc(N)n1` (single isomer, unassigned) [A43, 1-{2-amino-6-[5-(1H-pyrazol-4-yl)-1H-pyrrolo[2,3-b]pyridin-3-yl]pyrimidin-4-yl}-1-pyridin-4-ylpropan-1-ol]: 1.6 nM.
Compound `CC(O)(c1cccc(F)c1)c1cc(-c2c[nH]c3ncc(-c4cnn(CC(=O)N5CCCCC5)c4)cc23)nc(N)n1` (stereo not drawn) [A59, 2-[4-(3-{2-amino-6-[1-(3-fluorophenyl)-1-hydroxyethyl]pyrimidin-4-yl}-1H-pyrrolo[2,3-b]pyridin-5-yl)pyrazol-1-yl]-1-piperidin-1-ylethanone] yielded an IC50 of 69 nM.
With `CC(=O)N1CCN(c2ccc(-c3cnc4[nH]cc(-c5cc(C(C)(O)c6ccccc6)nc(N)n5)c4c3)cn2)CC1` (stereo not drawn) [A38, 1-[4-(5-{3-[2-amino-6-(1-hydroxy-1-phenylethyl)pyrimidin-4-yl]-1H-pyrrolo-[2,3-b]pyridin-5-yl}pyridin-2-yl)piperazin-1-yl]ethanone] the figure was 140 nM; with `CCCC(C)(O)c1cc(-c2c[nH]c3ncc(-c4cnn(C(C)C)c4)cc23)nc(N)n1` (stereo not drawn) [A87, 2-{2-amino-6-[5-(1-isopropyl-1H-pyrazol-4-yl)-1H-pyrrolo[2,3-b]pyridin-3-yl]-pyrimidin-4-yl}pentan-2-ol], 16 nM; with `CCC(OCOC)(c1cccc(F)c1)c1cc(-c2c[nH]c3ncc(Br)cc23)nc(N)n1` (stereo not drawn) [A54, 4-(5-bromo-1H-pyrrolo[2,3-b]pyridin-3-yl)-6-[1-(3-fluorophenyl)-1-methoxymethoxypropyl]pyrimidin-2-ylamine], 1500 nM.
With `COCO[C@@](C)(c1cccc(F)c1)c1cc(-c2c[nH]c3ncc(Br)cc23)nc(N)n1` [A72, 4-(5-bromo-1H-pyrrolo[2,3-b]pyridin-3-yl)-6-[(S)-1-(3-fluorophenyl)-1-methoxymethoxyethyl]pyrimidin-2-ylamine] the figure was 950 nM; with `CC(O)(c1ccccc1)c1cc(-c2c[nH]c3ncc(-c4cncnc4)cc23)nc(N)n1` (stereo not drawn) [A100, 1-[2-amino-6-(5-pyrimidin-5-yl-1H-pyrrolo[2,3-b]pyridin-3-yl)pyrimidin-4-yl]-1-phenylethanol], 1700 nM.
For `COCOC(C)(c1cccc(C)c1)c1cc(-c2c[nH]c3ncc(-c4cnn(C)c4)cc23)nc(N)n1` (stereo not drawn) [A23, 4-(1-methoxymethoxy-1-m-tolylethyl)-6-[5-(1-methyl-1H-pyrazol-4-yl)-1H-pyrrolo[2,3-b]pyridin-3-yl]pyrimidin-2-ylamine], the 50% inhibitory concentration (IC50) stood at 130 nM.
`Cc1cccc(C(C)(O)c2cc(-c3c[nH]c4ncc(-c5cnn(CCO)c5)cc34)nc(N)n2)c1` (stereo not drawn) [A94, 1-(2-amino-6-{5-[1-(2-hydroxyethyl)-1H-pyrazol-4-yl]-1H-pyrrolo[2,3-b]-pyridin-3-yl}pyrimidin-4-yl)-1-m-tolylethanol] came in with a half-maximal inhibitory concentration (IC50) of 60 nM.
Next, `CCOC(=O)CCn1cc(-c2cnc3[nH]cc(-c4cc(C(C)(OCOC)c5ccccc5)nc(N)n4)c3c2)cn1` (stereo not drawn) [A78, ethyl 3-(4-{3-[2-amino-6-(1-methoxymethoxy-1-phenylethyl)pyrimidin-4-yl]-1H-pyrrolo[2,3-b]pyridin-5-yl}pyrazol-1-yl)propionate]: 61 nM; `COCOC(C)(c1ccncc1)c1cc(-c2c[nH]c3ncc(Br)cc23)nc(N)n1` (stereo not drawn) [A56, 4-(5-bromo-1H-pyrrolo[2,3-b]pyridin-3-yl)-6-(1-methoxymethoxy-1-pyridin-4-ylethyl)pyrimidin-2-ylamine]: 150 nM; `COCOC(C)(c1ccccc1)c1cc(-c2c[nH]c3ncc(Br)cc23)nc(N)n1` (stereo not drawn) [A15, 4-(5-bromo-1H-pyrrolo[2,3-b]pyridin-3-yl)-6-(1-methoxymethoxy-1-phenylethyl)pyrimidin-2-ylamine]: 500 nM.
In the case of `CCC(OCOC)(c1ccncc1)c1cc(-c2c[nH]c3ncc(Br)cc23)nc(N)n1` (stereo not drawn) [A34, 4-(5-bromo-1H-pyrrolo[2,3-b]pyridin-3-yl)-6-(1-methoxymethoxy-1-pyridin-4-ylpropyl)pyrimidin-2-ylamine], the IC50 worked out at 170 nM.
With `CCC(O)(c1ccncc1)c1cc(-c2c[nH]c3ncc(-c4cnn(C)c4)cc23)nc(N)n1` (single isomer, unassigned) [A20, 1-{2-amino-6-[5-(1-methyl-1H-pyrazol-4-yl)-1H-pyrrolo[2,3-b]pyridin-3-yl]-pyrimidin-4-yl}-1-pyridin-4-ylpropan-1-ol] the figure was 2.2 nM.
With `CCC(O)(c1ccccc1)c1cc(-c2c[nH]c3ncc(-c4cnn(CCO)c4)cc23)nc(N)n1` (stereo not drawn) [A98, 1-(2-amino-6-{5-[1-(2-hydroxyethyl)-1H-pyrazol-4-yl]-1H-pyrrolo[2,3-b]-pyridin-3-yl}pyrimidin-4-yl)-1-phenylpropan-1-ol] the figure was 12 nM.
Take `CC(O)(c1ccncc1)c1cc(-c2c[nH]c3ncc(-c4cn[nH]c4)cc23)nc(N)n1` (stereo not drawn) [A62, 1-{2-amino-6-[5-(1H-pyrazol-4-yl)-1H-pyrrolo[2,3-b]pyridin-3-yl]pyrimidin-4-yl}-1-pyridin-4-ylethanol]: the half-inhibitory concentration (IC50) was determined as 2.8 nM.
`CC(O)(c1ccccc1)c1cc(-c2c[nH]c3ncc(-c4cnn(CC5CC5)c4)cc23)nc(N)n1` (stereo not drawn) [A83, 1-{2-amino-6-[5-(1-cyclopropylmethyl-1H-pyrazol-4-yl)-1H-pyrrolo[2,3-b]-pyridin-3-yl]pyrimidin-4-yl}-1-phenylethanol]: the midpoint of inhibition, the IC50, lay at 59 nM.
As to `COCOC(C)(c1cc(-c2c[nH]c3ncc(-c4cnn(C)c4)cc23)nc(N)n1)c1cccc(Cl)c1F` (stereo not drawn) [A29, 4-[1-(3-chloro-2-fluorophenyl)-1-methoxymethoxyethyl]-6-[5-(1-methyl-1H-pyrazol-4-yl)-1H-pyrrolo[2,3-b]pyridin-3-yl]pyrimidin-2-ylamine], half-maximal inhibition (IC50) required 40 nM.
With `CCC(O)(c1cccnc1)c1cc(-c2c[nH]c3ncc(-c4cnn(C)c4)cc23)nc(N)n1` (stereo not drawn) [A26, 1-{2-amino-6-[5-(1-methyl-1H-pyrazol-4-yl)-1H-pyrrolo[2,3-b]pyridin-3-yl]-pyrimidin-4-yl}-1-pyridin-3-ylpropan-1-ol] the figure was 43 nM.
With `COCOC(C)(c1ccnc(C)c1)c1cc(-c2c[nH]c3ncc(-c4cnn(C)c4)cc23)nc(N)n1` (stereo not drawn) [A108, 4-[1-methoxymethoxy-1-(2-methylpyridin-4-yl)ethyl]-6-[5-(1-methyl-1H-pyrazol-4-yl)-1H-pyrrolo[2,3-b]pyridin-3-yl]pyrimidin-2-ylamine] the figure was 49 nM.
Next, `Cn1cc(-c2cnc3[nH]cc(-c4cc(C(C)(O)c5ccnnc5)nc(N)n4)c3c2)cn1` (stereo not drawn) [A109, 1-{2-amino-6-[5-(1-methyl-1H-pyrazol-4-yl)-1H-pyrrolo[2,3-b]pyridin-3-yl]-pyrimidin-4-yl}-1-pyridazin-4-ylethanol]: 7.8 nM; `CO[C@@](C)(c1ccccc1)c1cc(-c2c[nH]c3ncc(-c4cnn(CCO)c4)cc23)nc(N)n1` (single isomer, unassigned) [A93]: 48 nM.
Take `CC[C@](OCOC)(c1cccc(F)c1)c1cc(-c2c[nH]c3ncc(Br)cc23)nc(N)n1` [A52, 4-(5-bromo-1H-pyrrolo[2,3-b]pyridin-3-yl)-6-[(S)-1-(3-fluorophenyl)-1-methoxymethoxypropyl]pyrimidin-2-ylamine]: the IC50 was more than 30000 nM.
`COCOC(C)(c1cc(-c2c[nH]c3ncc(Br)cc23)nc(N)n1)c1ccccc1C` (stereo not drawn) [A19, 4-(5-bromo-1H-pyrrolo[2,3-b]pyridin-3-yl)-6-(1-methoxymethoxy-1-o-tolylethyl)pyrimidin-2-ylamine]: the IC50 was 1500 nM.
With `CC[C@@](OCOC)(c1cccc(F)c1)c1cc(-c2c[nH]c3ncc(Br)cc23)nc(N)n1` [A51, 4-(5-bromo-1H-pyrrolo[2,3-b]pyridin-3-yl)-6-[(R)-1-(3-fluorophenyl)-1-methoxymethoxypropyl]pyrimidin-2-ylamine] the figure was 650 nM.
